Results as given in US8969419B2, “Animal feed compositions and feeding methods” (priority 2009, dated 2015).

Tested on: ruminal microbiota
Test: Analysis of ruminal samples from cattle fed hop beta acids or Rumensin
Type: in vivo
Details: Rumensin 300 mg/day; for Lactate Concentration, % differ from Control / Isobutyrate Concentration, % differ from Control / Isovalerate Concentration, % differ from Control / Valerate Concentration, % differ from Control / Butyrate Concentration, % differ from Control / Propionate Concentration, % differ from Control / Acetate Concentration, % differ from Control / Total VFA Concentration, % differ from Control: rumen fluid; for Lactate Concentration, % differ from Control / Isobutyrate Concentration, % differ from Control / Isovalerate Concentration, % differ from Control / Valerate Concentration, % differ from Control / Butyrate Concentration, % differ from Control / Propionate Concentration, % differ from Control / Acetate Concentration, % differ from Control / Total VFA Concentration, % differ from Control / Ruminal Ammonia Concentration, % differ from Control / Ruminal Acetate:Propionate Ratio, % differ from Control: β-acids averaged over five levels; for Ruminal pH, % differ from Control: β-acids averaged over five levels (10-300 mg/day)
Method: Background: Cattle were fed concentrate-based diets and were administered beta acids of hops (0, 10, 80, 160, 240, or 300 mg/day) or Rumensin (300 mg/day) to determine effects of the additives on ruminal microbiota. Rumen samples were periodically taken and pH, acetate, propionate, butyrate isobutyrate, valerate isovalerate, and total volatile fatty acid (VFA) concentrations were measured. Materials and Methods: A 10% beta acids solution (standard aqueous alkaline solution of beta acids) was subjected to dilution. Dilutions of the 10% beta acids solution were prepared (with water and KOH additions) such that solutions were prepared that contained the proper amount of beta acids (per ml) to provide proper cattle dose in 30 ml total volume (e.g. a solution was prepared that had 10 mg/30 ml (pH of 10.5) and was used to treat the 10 mg/steer/day group; another solution was prepared that had 80 mg/30 ml (pH 10.5) and was used to treat the 80 mg/steer/day group). Each animal was treated with it appropriate 30 ml of solution, once per day. A subset of ruminal fluid samples representing each of the seven treatment groups (control, five levels of beta acids and Rumensin). The beta acid levels were 10, 80 and 160, 240 and 300 mg/animal daily. The rumen fluid sampling was performed at prescribed intervals following feeding. Rumen samples were analyzed using standard accepted methodologies, and concentrations of parameters of interest determined. Results: Described in Tables I through XI are the averaged results from the 24 hour feeding period (i.e. average of analysis results for each parameter, complied from samples taken and analyzed over the course of the 24 hour feeding period) for: the control animals, the animals receiving beta acids treatments (average value at all five levels), and Rumensin treated animals. The Tables provide the maximum, minimum and average values observed. The beta acids (β-acids) and Rumensin values are reported as a percentage of the control. Positive percentage values mean that the treatment (beta acids or Rumensin) exceeded the control by the specified amount (negative values less than control by specified amount.

For `CCC1(C2OC(C3OC(O)(CO)C(C)CC3C)CC2C)CCC(C2(C)CCC3(CC(O)C(C)C(C(C)C(OC)C(C)C(=O)O)O3)O2)O1` (stereo not drawn) [Rumensin, 4-[2-[5-ethyl-5-[5-[6-hydroxy-6-(hydroxymethyl)-3,5-dimethyl-oxan-2-yl]-3-methyl-oxolan-2-yl]oxolan-2-yl]-9-hydroxy-2,8-dimethyl-1,6-dioxaspiro[4.5]dec-7-yl]-3-methoxy-2-methyl-pentanoic acid], the “Lactate Concentration, % differ from Control” value (Ave over 24 hrs of feeding, control 0.6 mM) was 10.2%, the “Isobutyrate Concentration, % differ from Control” value (Ave over 24 hrs of feeding, control 0.79 mM) was 6.84% and the “Isovalerate Concentration, % differ from Control” value (Ave over 24 hrs of feeding, control 1.25 mM) was 33.4%. The “Valerate Concentration, % differ from Control” value (Ave over 24 hrs of feeding, control 3.06 mM) was 31.7%, the “Butyrate Concentration, % differ from Control” value (Ave over 24 hrs of feeding, control 9.3 mM) was 0.6% and the “Propionate Concentration, % differ from Control” value (Ave over 24 hrs of feeding, control 29 mM) was 27.9%. The “Acetate Concentration, % differ from Control” value (Ave over 24 hrs of feeding, control 38 mM) was 9%, the “Total VFA Concentration, % differ from Control” value (Ave over 24 hrs of feeding, control 82 mM) was 14.9% and the “Ruminal Ammonia Concentration, % differ from Control” value (Ave over 24 hrs of feeding, control 3.4 mM) was −54.1%. For the same molecule, the “Ruminal Acetate:Propionate Ratio, % differ from Control” value (Ave over 24 hrs of feeding, control A:P ratio 1.50) was −20.4%, the “Ruminal pH, % differ from Control” value (Ave value over 24 hrs of feeding, control pH 5.69) was −4.45% and the “Isobutyrate Concentration, % differ from Control” value (Max over 24 hrs of feeding, control 1.00 mM) was 5.00%. The “Isovalerate Concentration, % differ from Control” value (Max over 24 hrs of feeding, control 1.81 mM) was 26.0%, the “Lactate Concentration, % differ from Control” value (Max over 24 hrs of feeding, control 3.0 mM) was 66.7% and the “Valerate Concentration, % differ from Control” value (Max over 24 hrs of feeding, control 3.80 mM) was 39.5%. The “Butyrate Concentration, % differ from Control” value (Max over 24 hrs of feeding, control 12.6 mM) was −8.7%, the “Propionate Concentration, % differ from Control” value (Max over 24 hrs of feeding, control 40 mM) was 12.5% and the “Acetate Concentration, % differ from Control” value (Max over 24 hrs of feeding, control 49 mM) was −2%. The “Total VFA Concentration, % differ from Control” value (Max over 24 hrs of feeding, control 107 mM) was 0.9%, the “Ruminal Ammonia Concentration, % differ from Control” value (Max over 24 hrs of feeding, control 7.2 mM) was −41.7% and the “Ruminal Acetate:Propionate Ratio, % differ from Control” value (Max over 24 hrs of feeding, control A:P ratio 1.73) was 4.0%. For the same molecule, the “Ruminal pH, % differ from Control” value (Max value over 24 hrs of feeding, control pH 6.60) was −5.45%, the “Lactate Concentration, % differ from Control” value (Min over 24 hrs of feeding, control 0.2 mM) was 0.0% and the “Isobutyrate Concentration, % differ from Control” value (Min over 24 hrs of feeding, control 0.57 mM) was 17.54%. For the same molecule, the “Isovalerate Concentration, % differ from Control” value (Min over 24 hrs of feeding, control 0.88 mM) was 50.0%, the “Valerate Concentration, % differ from Control” value (Min over 24 hrs of feeding, control 1.9 mM) was 36.8% and the “Butyrate Concentration, % differ from Control” value (Min over 24 hrs of feeding, control 6.6 mM) was −75.8%. The “Propionate Concentration, % differ from Control” value (Min over 24 hrs of feeding, control 18 mM) was 22.2%, the “Acetate Concentration, % differ from Control” value (Min over 24 hrs of feeding, control 28 mM) was 11% and the “Total VFA Concentration, % differ from Control” value (Min over 24 hrs of feeding, control 57 mM) was 14.0%. For the same molecule, the “Ruminal Ammonia Concentration, % differ from Control” value (Min over 24 hrs of feeding, control 0.7 mM) was −54.3%, the “Ruminal Acetate:Propionate Ratio, % differ from Control” value (Min over 24 hrs of feeding, control A:P ratio 1.30) was −25.4% and the “Ruminal pH, % differ from Control” value (Min value over 24 hrs of feeding, control pH 5.18) was −2.70%.
